Biological target: Helios (Homo sapiens, UniProt Q96SW2+Q9UKS7)
Assay: Helios Human T Regulatory Cells Degradation Assay
Type: cell-based
Design: fluorescently labelled antibodies against Helios in 1× Permeabilization buffer; endogenous in cells; host or cells: cryopreserved human T regulatory cells
Conditions: cryopreserved human T regulatory cells, incubated 20 hours, Helios-APC antibody staining, flow cytometry; read-out: hTreg Helios DC50
Description: Cryopreserved human T regulatory cells were thawed in RPMI+10% FBS+20 ng/mL IL-2. After being spun at 1200 rpm for 5 mins, the cells were resuspended in RPMI+10% FBS+20 ng/mL and rested at 37° C. with 5% CO2 for 3 hours. […] Cell cultures were incubated for 20 hours at 37° C. and 5% CO2. In order to facilitate analysis, cell cultures were spun down at 1200 rpm for 5 minutes and the supernatant was discarded using an EL406 plate washer. After washing three times with 70 μL PBS, cell pellets were resuspended in 50 μL of near IR viability staining solution (Life Technologies, Cat #L34975) and incubated for 30 minutes on ice protected from light. Cells were washed three times with 70 μL PBS+0.5% BSA using an EL406 plate washer. […] Subsequently, 30 μL of 1× Permeabilization buffer was added prior to centrifuging the cells and discarding the supernatant. Stained cells were resuspended in 30 μL of flow cytometry staining buffer (PBS+0.5% BSA) and analyzed using an Intellicyt Ique Plus flow cytometer.

Chain of Helios (Q9UKS7 whole entry): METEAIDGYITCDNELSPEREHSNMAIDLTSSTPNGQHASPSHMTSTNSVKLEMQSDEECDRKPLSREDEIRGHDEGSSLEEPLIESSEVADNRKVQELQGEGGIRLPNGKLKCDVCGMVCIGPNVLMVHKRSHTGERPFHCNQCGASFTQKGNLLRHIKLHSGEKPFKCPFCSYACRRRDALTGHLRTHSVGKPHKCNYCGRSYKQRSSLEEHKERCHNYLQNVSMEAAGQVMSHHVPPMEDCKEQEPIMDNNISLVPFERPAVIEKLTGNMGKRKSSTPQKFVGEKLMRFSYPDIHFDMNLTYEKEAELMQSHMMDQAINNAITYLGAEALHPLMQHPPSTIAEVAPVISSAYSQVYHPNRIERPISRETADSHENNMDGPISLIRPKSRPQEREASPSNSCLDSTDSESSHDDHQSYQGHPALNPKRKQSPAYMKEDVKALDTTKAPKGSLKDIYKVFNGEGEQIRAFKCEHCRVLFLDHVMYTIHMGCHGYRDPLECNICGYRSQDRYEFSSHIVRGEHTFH
Chain of Helios (Q96SW2 whole entry): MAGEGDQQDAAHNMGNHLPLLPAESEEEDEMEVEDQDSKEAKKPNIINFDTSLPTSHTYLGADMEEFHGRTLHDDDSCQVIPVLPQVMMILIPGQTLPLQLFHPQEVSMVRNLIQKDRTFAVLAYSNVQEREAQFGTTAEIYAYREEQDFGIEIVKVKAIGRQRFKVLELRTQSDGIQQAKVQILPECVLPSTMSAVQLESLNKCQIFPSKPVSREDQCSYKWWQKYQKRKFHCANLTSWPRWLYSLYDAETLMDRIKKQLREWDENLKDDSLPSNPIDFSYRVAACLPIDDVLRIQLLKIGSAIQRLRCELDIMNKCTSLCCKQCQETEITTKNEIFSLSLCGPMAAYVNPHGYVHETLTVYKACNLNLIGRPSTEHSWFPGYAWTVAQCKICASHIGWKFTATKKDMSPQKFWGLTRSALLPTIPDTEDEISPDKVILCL
Chain of Helios (Q16531 whole entry partner): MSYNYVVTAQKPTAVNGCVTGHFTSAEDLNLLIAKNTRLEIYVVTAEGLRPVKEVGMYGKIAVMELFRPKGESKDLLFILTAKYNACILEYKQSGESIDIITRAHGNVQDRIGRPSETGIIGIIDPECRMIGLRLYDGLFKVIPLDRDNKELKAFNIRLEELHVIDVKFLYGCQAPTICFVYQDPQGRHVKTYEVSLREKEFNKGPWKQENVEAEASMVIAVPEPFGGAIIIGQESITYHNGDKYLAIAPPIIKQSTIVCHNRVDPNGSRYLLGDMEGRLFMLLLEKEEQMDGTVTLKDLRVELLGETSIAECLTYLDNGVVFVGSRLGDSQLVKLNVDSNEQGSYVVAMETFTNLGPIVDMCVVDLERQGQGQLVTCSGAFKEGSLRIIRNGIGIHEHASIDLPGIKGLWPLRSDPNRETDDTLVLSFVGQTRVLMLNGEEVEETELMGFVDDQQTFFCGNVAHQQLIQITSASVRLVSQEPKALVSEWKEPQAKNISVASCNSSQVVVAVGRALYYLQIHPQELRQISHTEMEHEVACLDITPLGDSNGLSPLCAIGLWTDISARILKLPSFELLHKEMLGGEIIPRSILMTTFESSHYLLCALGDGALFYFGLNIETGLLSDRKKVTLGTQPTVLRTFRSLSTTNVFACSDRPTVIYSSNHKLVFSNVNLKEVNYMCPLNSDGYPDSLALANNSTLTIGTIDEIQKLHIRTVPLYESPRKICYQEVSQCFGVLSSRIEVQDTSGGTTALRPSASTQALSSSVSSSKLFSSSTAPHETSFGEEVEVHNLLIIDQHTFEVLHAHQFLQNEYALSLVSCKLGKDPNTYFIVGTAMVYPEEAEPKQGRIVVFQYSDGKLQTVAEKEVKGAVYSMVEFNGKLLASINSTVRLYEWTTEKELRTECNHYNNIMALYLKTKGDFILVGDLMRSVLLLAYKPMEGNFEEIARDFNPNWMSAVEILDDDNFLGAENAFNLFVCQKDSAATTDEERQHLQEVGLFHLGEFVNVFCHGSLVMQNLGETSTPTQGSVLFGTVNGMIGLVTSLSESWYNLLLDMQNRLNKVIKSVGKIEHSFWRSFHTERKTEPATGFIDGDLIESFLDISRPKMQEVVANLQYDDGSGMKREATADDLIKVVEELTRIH

SMILES	DC50 [µM]
O=C1CCC(N2Cc3cc(-c4cc(CN5C[C@@H]6C(CO)[C@@H]6C5)ccn4)ccc3C2=O)C(=O)N1 (stereo partly drawn) [Example 101, 3-(5-(4-(((1R,5S,6r)-6-(hydroxymethyl)-3-azabicyclo[3.1.0]hexan-3-yl)methyl)pyridin-2-yl)-1-oxoisoindolin-2-yl)piperidine-2,6-dione]	0.0042
O=C1CCC(N2Cc3cc(-c4cc(CN5CC[C@@H](CO)C5)ccn4)ccc3C2=O)C(=O)N1 (stereo partly drawn) [Example 102, 3-(5-(4-(((R)-3-(hydroxymethyl)pyrrolidin-1-yl)methyl)pyridin-2-yl)-1-oxoisoindolin-2-yl)piperidine-2,6-dione]	0.0081
O=C1CCC(N2Cc3cc(-c4cc(CN5Cc6cnc(Cl)cc6C5)ccn4)ccc3C2=O)C(=O)N1 (stereo not shown) [Example 103, 3-(5-(4-((6-chloro-1,3-dihydro-2H-pyrrolo[3,4-c]pyridin-2-yl)methyl)pyridin-2-yl)-1-oxoisoindolin-2-yl)piperidine-2,6-dione]	4.11
CC(C)(O)[C@H]1CCN(Cc2ccnc(-c3ccc4c(c3)CN(C3CCC(=O)NC3=O)C4=O)c2)C1 (stereo partly drawn) [Example 104, 3-(5-(4-(((S)-3-(2-hydroxypropan-2-yl)pyrrolidin-1-yl)methyl)pyridin-2-yl)-1-oxoisoindolin-2-yl)piperidine-2,6-dione]	0.0042
O=C1CCC(N2Cc3cc(-c4cc(CN5CC[C@H](CO)C5)ccn4)ccc3C2=O)C(=O)N1 (stereo partly drawn) [Example 105, 3-(5-(4-(((S)-3-(hydroxymethyl)pyrrolidin-1-yl)methyl)pyridin-2-yl)-1-oxoisoindolin-2-yl) piperidine-2,6-dione]	0.0004
CC(C)(O)[C@@H]1CCN(Cc2ccnc(-c3ccc4c(c3)CN(C3CCC(=O)NC3=O)C4=O)c2)C1 (stereo partly drawn) [Example 106, 3-(5-(4-(((R)-3-(2-hydroxypropan-2-yl)pyrrolidin-1-yl)methyl)pyridin-2-yl)-1-oxoisoindolin-2-yl)piperidine-2,6-dione]	0.006
C[C@@H]1c2c(ccc(-c3cc(CN4CC[C@@H](CO)C4)ccn3)c2F)C(=O)N1[C@H]1CCC(=O)NC1=O [Example 133, (S)-3-((R)-4-fluoro-5-(4-(((R)-3-(hydroxymethyl)pyrrolidin-1-yl)methyl)pyridin-2-yl)-3-methyl-1-oxoisoindolin-2-yl)piperidine-2,6-dione]	0.0231
C[C@@H]1c2c(ccc(-c3cc(CN4CCC(O)(c5ccccc5)C4)ccn3)c2F)C(=O)N1[C@H]1CCC(=O)NC1=O (stereo partly drawn) [Example 139, (3S)-3-((3R)-4-fluoro-5-(4-((3-hydroxy-3-phenylpyrrolidin-1-yl)methyl)pyridin-2-yl)-3-methyl-1-oxoisoindolin-2-yl)piperidine-2,6-dione]	0.367
C[C@@H]1c2c(ccc(-c3cc(CN4CCC(C)(O)C4)ccn3)c2F)C(=O)N1[C@H]1CCC(=O)NC1=O (stereo partly drawn) [Example 140, (3S)-3-((3R)-4-fluoro-5-(4-((3-hydroxy-3-methylpyrrolidin-1-yl)methyl)pyridin-2-yl)-3-methyl-1-oxoisoindolin-2-yl)piperidine-2,6-dione]	0.0791
C[C@@H]1c2c(ccc(-c3cc(CN4CC[C@@H](Oc5ccccc5)C4)ccn3)c2F)C(=O)N1[C@H]1CCC(=O)NC1=O [Example 141, (S)-3-((R)-4-fluoro-3-methyl-1-oxo-5-(4-(((R)-3-phenoxypyrrolidin-1-yl)methyl)pyridin-2-yl)isoindolin-2-yl)piperidine-2,6-dione]	≥ 10
C[C@@H]1c2c(ccc(-c3cc(CN4CC[C@H](F)C4)ccn3)c2F)C(=O)N1[C@H]1CCC(=O)NC1=O [Example 142]	0.706
O=C1CC[C@H](N2Cc3cc(-c4cc(CN5CC6(CC(O)C6)C5)ccn4)ccc3C2=O)C(=O)N1 [Example 145, (S)-3-(5-(4-((6-hydroxy-2-azaspiro[3.3]heptan-2-yl)methyl)pyridin-2-yl)-1-oxoisoindolin-2-yl)piperidine-2,6-dione]	0.0007
O=C1CC[C@H](N2Cc3cc(-c4cc(CN5CC6CC(O)CC6C5)ccn4)ccc3C2=O)C(=O)N1 (stereo partly drawn) [Example 146, (3S)-3-(5-(4-((5-hydroxyhexahydrocyclopenta[c]pyrrol-2(1H)-yl)methyl)pyridin-2-yl)-1-oxoisoindolin-2-yl)piperidine-2,6-dione]	0.003
CC1=CC2CN(Cc3ccnc(-c4ccc5c(c4)CN([C@H]4CCC(=O)NC4=O)C5=O)c3)CC2C1 (stereo partly drawn) [Example 148, (3S)-3-(5-(4-((5-methyl-3,3a,4,6a-tetrahydrocyclopenta[c]pyrrol-2(1H)-yl)methyl)pyridin-2-yl)-1-oxoisoindolin-2-yl)piperidine-2,6-dione]	0.0037
O=C1CC[C@H](N2Cc3cc(-c4cc(CN5C[C@H]6COC[C@H]6C5)ccn4)ccc3C2=O)C(=O)N1 [Example 152, (S)-3-(1-oxo-5-(4-(((3aR,6aS)-tetrahydro-1H-furo[3,4-c]pyrrol-5(3H)-yl)methyl)pyridin-2-yl)isoindolin-2-yl)piperidine-2,6-dione]	0.0188
CC(C)(C)OC(=O)N1C[C@@H]2CN(Cc3ccnc(-c4ccc5c(c4)CN([C@H]4CCC(=O)NC4=O)C5=O)c3F)C[C@H]2C1 [Example 154, tert-butyl (3aS,6aS)-5-((2-(2-((S)-2,6-dioxopiperidin-3-yl)-1-oxoisoindolin-5-yl)-3-fluoropyridin-4-yl)methyl)hexahydropyrrolo[3,4-c]pyrrole-2(1H)-carboxylate]	0.284

The remaining lines, values ahead:

DC50 [µM]	SMILES
0.0058	CC(O)C1CCN(Cc2ccnc(-c3ccc4c(c3)CN(C3CCC(=O)NC3=O)C4=O)c2)C1 (stereo not shown) [Example 107, 3-(5-(4-((3-(1-hydroxyethyl)pyrrolidin-1-yl)methyl)pyridin-2-yl)-1-oxoisoindolin-2-yl)piperidine-2,6-dione]
0.0014	CC(O)C1CCN(Cc2ccnc(-c3ccc4c(c3)CN(C3CCC(=O)NC3=O)C4=O)c2)CC1 (stereo not shown) [Example 108, 3-(5-(4-((4-(1-hydroxyethyl)piperidin-1-yl)methyl)pyridin-2-yl)-1-oxoisoindolin-2-yl)piperidine-2,6-dione]
0.0213	O=C1CCC(N2Cc3cc(-c4nccc(CN5CC[C@H](CO)C5)c4F)ccc3C2=O)C(=O)N1 (stereo partly drawn) [Example 109, 3-(5-(3-fluoro-4-(((S)-3-(hydroxymethyl)pyrrolidin-1-yl)methyl)pyridin-2-yl)-1-oxoisoindolin-2-yl)piperidine-2,6-dione]
0.0098	CC(C)(O)[C@H]1CCN(Cc2ccnc(-c3ccc4c(c3)CN(C3CCC(=O)NC3=O)C4=O)c2F)C1 (stereo partly drawn) [Example 110, 3-(5-(3-fluoro-4-(((S)-3-(2-hydroxypropan-2-yl)pyrrolidin-1-yl)methyl)pyridin-2-yl)-1-oxoisoindolin-2-yl)piperidine-2,6-dione]
0.0104	CC(C)(O)[C@@H]1CCN(Cc2ccnc(-c3ccc4c(c3)CN(C3CCC(=O)NC3=O)C4=O)c2F)C1 (stereo partly drawn) [Example 111, 3-(5-(3-fluoro-4-(((R)-3-(2-hydroxypropan-2-yl)pyrrolidin-1-yl)methyl)pyridin-2-yl)-1-oxoisoindolin-2-yl) piperidine-2,6-dione]
0.0095	CC(O)C1CCN(Cc2ccnc(-c3ccc4c(c3)CN(C3CCC(=O)NC3=O)C4=O)c2F)C1 (stereo not shown) [Example 112, 3-(5-(3-fluoro-4-((3-(1-hydroxyethyl)pyrrolidin-1-yl)methyl)pyridin-2-yl)-1-oxoisoindolin-2-yl)piperidine-2,6-dione]
0.0139	CC(O)C1CCN(Cc2ccnc(-c3ccc4c(c3)CN(C3CCC(=O)NC3=O)C4=O)c2F)CC1 (stereo not shown) [Example 113, 3-(5-(3-fluoro-4-((4-(1-hydroxyethyl)piperidin-1-yl)methyl)pyridin-2-yl)-1-oxoisoindolin-2-yl) piperidine-2,6-dione]
0.0235	O=C1CCC(N2Cc3cc(-c4nccc(CN5CC[C@H](O)C5)c4F)ccc3C2=O)C(=O)N1 (stereo partly drawn) [Example 114, 3-(5-(3-fluoro-4-(((S)-3-hydroxypyrrolidin-1-yl)methyl)pyridin-2-yl)-1-oxoisoindolin-2-yl)piperidine-2,6-dione]
0.0067	O=C1CC[C@H](N2Cc3cc(-c4nccc(CN5C[C@H]6CCC(O)C[C@H]6C5)c4F)ccc3C2=O)C(=O)N1 (stereo partly drawn) [Example 149, (3S)-3-(5-(3-fluoro-4-(((3aR,7aS)-5-hydroxyoctahydro-2H-isoindol-2-yl)methyl)pyridin-2-yl)-1-oxoisoindolin-2-yl)piperidine-2,6-dione]
≥ 10	O=C1CC[C@H](N2Cc3cc(-c4nccc(CN5CCC6(CCNC6=O)CC5)c4F)ccc3C2=O)C(=O)N1 [Example 150, (S)-3-(5-(3-fluoro-4-((1-oxo-2,8-diazaspiro[4.5]decan-8-yl)methyl)pyridin-2-yl)-1-oxoisoindolin-2-yl)piperidine-2,6-dione]
0.167	O=C1CC[C@H](N2Cc3cc(-c4nccc(CN5C[C@H]6COC[C@H]6C5)c4F)ccc3C2=O)C(=O)N1 [Example 151, (S)-3-(5-(3-fluoro-4-(((3aR,6aS)-tetrahydro-1H-furo[3,4-c]pyrrol-5(3H)-yl)methyl)pyridin-2-yl)-1-oxoisoindolin-2-yl)piperidine-2,6-dione]
0.0153	O=C1CC[C@H](N2Cc3cc(-c4nccc(CN5CC6(CC(O)C6)C5)c4F)ccc3C2=O)C(=O)N1 [Example 153, (S)-3-(5-(3-fluoro-4-((6-hydroxy-2-azaspiro[3.3]heptan-2-yl)methyl)pyridin-2-yl)-1-oxoisoindolin-2-yl)piperidine-2,6-dione]
